Data published in patent US7915423B2, “Solid states of pantoprazole sodium, processes for preparing them and processes for preparing known pantoprazole sodium hydrates” (Teva Pharmaceutical Industries, Ltd., priority 2002, dated 2011).
Each block holds one compound with its values, some of them ahead of it.

Key:
[1] = Thermal interconversion of solid forms on drying, followed by PXRD; type: physicochemical
Procedure: The PXRD patterns depicted in the accompanying figures were obtained on a Scintag X-Ray powder diffractometer model X'TRA with a copper tube solid state detector. A round standard aluminum sample holder with round zero background quartz plate was used. Scanning parameters: Range: 2-40°2θ: continuous scan, Rate: 3 deg./min.
The mixture was stirred overnight at ambient temperature, giving the crystals. The crystals were filtered on filter paper.
Pantoprazole sodium Form V was dried at 65° C. under ambient pressure for two hours.
The solution was stirred overnight without precipitation. The solution was allowed to stand overnight in an opened flask with precipitation of the product. The crystals were filtered and allowed to stand at room temperature open to the air for a short period of time but were not otherwise dried.
The pantoprazole sodium Form VI was then dried at 50° C. under a 10 mm Hg vacuum overnight. The resulting powder was analyzed by PXRD and found to be amorphous.

[2] = as above; type: physicochemical; settings: 100° C. under 10 mm vacuum overnight
[3] = Solubility of pantoprazole sodium in alcohols; type: physicochemical
Source text: Accordingly, initial investigation focused on how this solvate could be produced by crystallization from a solution rather than a heterogeneous technique. We discovered that combining free pantoprazole and solid sodium hydroxide in 1-butanol and crystallization of the resulting pantoprazole sodium salt yielded Form V. The presence of minor amounts of water originating from the use of non-anhydrous 1-butanol, a hydrated starting material or water adsorbed on the equipment used for crystallization has no effect on the crystal form obtained. […] Again, conditions depleted of water, yet not rigorously anhydrous were investigated. We discovered that Form X can be obtained by crystallization from a solution formed by combining free pantoprazole with sodium hydroxide in 1-propanol.

[4] = cited from earlier work
[5] = 50° C. under 10 mm Hg vacuum overnight
[6] = 65° C. under ambient pressure for two hours

solid form obtained after drying (PXRD) [1, 5]: pantoprazole sodium Form I
SMILES: COc1ccnc(C[S+]([O-])c2nc3ccc(OC(F)F)cc3[nH]2)c1OC (stereo not shown) [Form IV, pantoprazole sodium]

solid form obtained after drying (PXRD) [1, 6]: pantoprazole sodium Form XIII
solid form obtained after drying (PXRD) ([1]; 65° C. under ambient pressure for two hours, listed as pantoprazole sodium 1-butanol solvate): pantoprazole sodium Form XIII
SMILES: COc1ccnc(C[S+]([O-])c2nc3ccc(OC(F)F)cc3[nH]2)c1OC (stereo not shown) [Form V, pantoprazole sodium]

solid form obtained after drying (PXRD) [1, 5]: amorphous
SMILES: COc1ccnc(C[S+]([O-])c2nc3ccc(OC(F)F)cc3[nH]2)c1OC (stereo not shown) [Form VI, pantoprazole sodium]

solid form obtained after drying ([1]; 50° C. under 10 mm Hg vacuum, time not given): pantoprazole sodium Form I
SMILES: COc1ccnc(C[S+]([O-])c2nc3ccc(OC(F)F)cc3[nH]2)c1OC (stereo not shown) [Form VIII, pantoprazole sodium]

solid form obtained after drying (PXRD) [1, 6]: pantoprazole sodium Form XIII
solid form obtained after drying (PXRD) ([1]; 65° C. under ambient pressure for two hours, listed as pantoprazole sodium 2-methylpropanol solvate): pantoprazole sodium Form XIII
SMILES: COc1ccnc(C[S+]([O-])c2nc3ccc(OC(F)F)cc3[nH]2)c1OC (stereo not shown) [Form XII, pantoprazole sodium]

solid form obtained after further drying ([1]; 65° C. for another two hours under ambient pressure (Form XIII obtained from Form V)): partially amorphous
solid form obtained after drying (PXRD) [1, 6]: amorphous pantoprazole sodium
SMILES: COc1ccnc(C[S+]([O-])c2nc3ccc(OC(F)F)cc3[nH]2)c1OC (stereo not shown) [Form XIII, pantoprazole sodium]

solid form obtained after drying (PXRD) [1, 5]: pantoprazole sodium Form XV
SMILES: COc1ccnc(C[S+]([O-])c2nc3ccc(OC(F)F)cc3[nH]2)c1OC (stereo not shown) [Form XIV, pantoprazole sodium]

solid form by PXRD as wet sample and after drying ([1]; drying at 50° C.): Form XVIII
SMILES: COc1ccnc(C[S+]([O-])c2nc3ccc(OC(F)F)cc3[nH]2)c1OC (stereo not shown) [Form XVIII, pantoprazole sodium]

dehydration on drying ([1]; mild conditions such as 50° C. at 10 mm Hg vacuum): without causing significant dehydration
SMILES: COc1ccnc(C[S+]([O-])c2nc3ccc(OC(F)F)cc3[nH]2)c1OC (stereo not shown) [Form XX, pantoprazole sodium]

solid form obtained after drying [2]: amorphous pantoprazole sodium
SMILES: COc1ccnc(C[S+]([O-])c2nc3ccc(OC(F)F)cc3[nH]2)c1OC (stereo not shown) [Pantoprazole sodium sesquihydrate, pantoprazole sodium]

solubility in 1-butanol ([3]; 1-butanol): appreciably soluble
solubility in 1-propanol ([3]; 1-propanol): high solubility
SMILES: COc1ccnc(C[S+]([O-])c2nc3ccc(OC(F)F)cc3[nH]2)c1OC (stereo not shown) [Pantoprazole sodium, pantoprazole sodium]

SMILES: COc1ccnc(C[S+]([O-])c2nc3ccc(OC(F)F)cc3[nH]2)c1OC (stereo not shown) [monohydrate, pantoprazole sodium]
solubility in acetone [4]: dissolves with difficulty
